The results in this text go back to ChEMBL document CHEMBL3045927, “Synthesis of 4-methyl-1,2,3-thiadiazole derivatives via Ugi reaction and their biological activities” (2010).

Assay type in all cases: functional
One test has as its system Thanatephorus cucumeris. In words: Fungicidal activity against Thanatephorus cucumeris at 50 ug/ml by growth inhibition method. Further details: scale not given: the % may be the effect or the level left.
The next test has as its system Phytophthora infestans. The test is described as follows: Fungicidal activity against Phytophthora infestans at 50 ug/ml by growth inhibition method. Further details: scale not given: the % may be the effect or the level left.
Another test deals with Colletotrichum lagenaria. In words: Fungicidal activity against Colletotrichum lagenaria at 50 ug/ml by growth inhibition method. Further details: scale not given: the % may be the effect or the level left.
In another test the test system is Fusarium oxysporum. In words: Fungicidal activity against Fusarium oxysporum at 50 ug/ml by growth inhibition method. Set-up: scale not given: the % may be the effect or the level left.
The next test deals with Mycosphaerella arachidis. In words: Fungicidal activity against Mycosphaerella arachidis at 50 ug/ml by growth inhibition method. Set-up: scale not given: the % may be the effect or the level left.
A further test has as its system Cercospora beticola. In words: Fungicidal activity against Cercospora beticola at 50 ug/ml by growth inhibition method. Set-up: scale not given: the % may be the effect or the level left.
Test [1] concerns Botryosphaeria berengeriana. The test is described as follows: Fungicidal activity against Botryosphaeria berengeriana at 50 ug/ml by growth inhibition method. Further details: scale not given: the % may be the effect or the level left.
Test [2] deals with Tobacco mosaic virus. In words: In vitro antiviral activity against Tobacco mosaic virus (TMV) infected tobacco leaves at 100 ug/ml.
In a further test the test system is Rhizoctonia solani. In words: Fungicidal activity against Rhizoctonia solani at 50 ug/ml by growth inhibition method. Set-up: scale not given: the % may be the effect or the level left.
For test [3], the system named is Tobacco mosaic virus. In words: In vitro antiviral activity against Tobacco mosaic virus (TMV) infected tobacco leaves at 500 ug/ml.
A further test deals with Pyricularia grisea. In words: Fungicidal activity against Magnaporthe grisea at 50 ug/ml by growth inhibition method. Set-up: scale not given: the % may be the effect or the level left.
The test system of another test is Alternaria solani. In words: Fungicidal activity against Alternaria solani at 50 ug/ml by growth inhibition method. Set-up: scale not given: the % may be the effect or the level left.
The subject of test [4] is Tobacco mosaic virus. The test is described as follows: In vivo antiviral activity against Tobacco mosaic virus (TMV) infected tobacco leaves assessed as curative effect at 100 ug/ml treated after viral inoculation measured at 2-3 days after viral challenge.
In test [5] the test system is Tobacco mosaic virus. In words: In vivo antiviral activity against Tobacco mosaic virus (TMV) infected tobacco leaves assessed as inactivation effect at 500 ug/ml co-treated with virus for 30 min before inoculation onto leaves measured at 2-3 days after viral challenge.
Test [6] relates to Nicotiana tabacum. In words: Induction of systemic acquired resistance activity in TMV infected-Nicotiana tabacum (tobacco) leaves at 50 ug/ml.
Test [7] deals with Tobacco mosaic virus. The test is described as follows: In vivo antiviral activity against Tobacco mosaic virus (TMV) infected tobacco leaves assessed as inactivation effect at 100 ug/ml co-treated with virus for 30 min before inoculation onto leaves measured at 2-3 days after viral challenge.
Test [8] relates to Tobacco mosaic virus. In words: In vivo antiviral activity against Tobacco mosaic virus (TMV) infected tobacco leaves assessed as protective effect at 500 ug/ml treated 12 hr before viral inoculation measured at 2-3 days after viral challenge.
Test [9] relates to Tobacco mosaic virus. In words: In vivo antiviral activity against Tobacco mosaic virus (TMV) infected tobacco leaves assessed as protective effect at 100 ug/ml treated 12 hr before viral inoculation measured at 2-3 days after viral challenge.
Test [10] deals with Nicotiana tabacum. In words: Induction of systemic acquired resistance activity in TMV infected-Nicotiana tabacum (tobacco) leaves at 100 ug/ml.
Test [11] concerns Tobacco mosaic virus. In words: In vivo antiviral activity against Tobacco mosaic virus (TMV) infected tobacco leaves assessed as curative effect at 500 ug/ml treated after viral inoculation measured at 2-3 days after viral challenge.

On to `Cc1ccc(N(C(=O)c2snnc2C)C(C(=O)NC2CCCCC2)c2ccccc2[N+](=O)[O-])cc1Cl` (centres undefined), for which the Activity in the test with Thanatephorus cucumeris is on record as 22%; in the test on Phytophthora infestans, 0%; in the test on Colletotrichum lagenaria it was 32%; in the test on Fusarium oxysporum it was 22%; in the test with Mycosphaerella arachidis, 16%; in the test on Cercospora beticola, 11%. In addition, the Activity in test [1] is recorded as 41%; in the test on Rhizoctonia solani, 29%; in the test with Pyricularia grisea, 24%; with Alternaria solani, 35%. Further, the inhibition at 100 µg/mL with Tobacco mosaic virus [2] amounted to 15%. Besides, testing at 500 µg/mL with Tobacco mosaic virus [3] gave an inhibition of 47%.
With `Cc1ccc(N(C(=O)c2snnc2C)C(C(=O)NC2CCCCC2)c2cccc(F)c2)cc1Cl` (centres undefined), the Activity in the test on Thanatephorus cucumeris was 17%; with Phytophthora infestans, 21%; with Colletotrichum lagenaria it was 9%; with Fusarium oxysporum it was 21%; with Mycosphaerella arachidis, 39%; with Cercospora beticola, 27%. Moreover, the Activity in test [1] was determined as 22%; with Rhizoctonia solani, 69%; with Pyricularia grisea, 15%; in the test with Alternaria solani, 21%. In the test on Tobacco mosaic virus [2], at 100 µg/mL the inhibition was 9%. Moreover, in the test on Tobacco mosaic virus [3], the inhibition at 500 µg/mL came out at 18%.
Turning to `Cc1ccc(N(C(=O)c2snnc2C)C(C(=O)NC2CCCCC2)c2ccc(F)cc2)cc1Cl` (centres undefined), the Activity in the test with Thanatephorus cucumeris was found to be 12%; with Phytophthora infestans, 35%; with Colletotrichum lagenaria, 5%; in the test on Fusarium oxysporum, 0%; in the test with Mycosphaerella arachidis, 26%; in the test on Cercospora beticola, 27%. The Activity in [1] is given as 26%; with Rhizoctonia solani, 67%; in the test on Pyricularia grisea, 25%; with Alternaria solani, 37%. In the test on Tobacco mosaic virus [2], this compound displayed an inhibition at 100 µg/mL of 15%. Besides, the inhibition at 500 µg/mL with Tobacco mosaic virus [3] amounted to 16%.
Consider `Cc1ccc(N(C(=O)c2snnc2C)C(C(=O)NC2CCCCC2)c2cccc(C(F)(F)F)c2)cc1Cl` (centres undefined), for which the Activity was found to be 30% in the test on Thanatephorus cucumeris; 20% with Phytophthora infestans; 20% with Colletotrichum lagenaria; 31% in the test on Fusarium oxysporum; 21% in the test on Mycosphaerella arachidis; 22% in the test with Cercospora beticola. Moreover, the Activity in test [1] came to 31%; with Rhizoctonia solani it was 20%; in the test with Pyricularia grisea it was 24%; in the test on Alternaria solani, 32%. In the test with Tobacco mosaic virus [2], the inhibition at 100 µg/mL is 22%. Moreover, the inhibition at 500 µg/mL in the test with Tobacco mosaic virus [3] came to 19%.
In the case of `Cc1ccc(N(C(=O)c2snnc2C)C(C(=O)NC2CCCCC2)c2ccc([N+](=O)[O-])cc2)cc1Cl` (centres undefined), the Activity was determined as 25% in the test on Thanatephorus cucumeris; 12% in the test with Phytophthora infestans; 24% in the test on Colletotrichum lagenaria; 22% in the test on Fusarium oxysporum; 16% with Mycosphaerella arachidis; 11% with Cercospora beticola. For the same compound, the Activity in test [1] was 38%; with Rhizoctonia solani, 29%; in the test on Pyricularia grisea, 18%; with Alternaria solani, 35%. Also, in the test with Tobacco mosaic virus [2], the inhibition at 100 µg/mL was determined as 26%. Besides, testing at 500 µg/mL in the test on Tobacco mosaic virus [3] gave an inhibition of 32%.
With `Cc1cccc(C(C(=O)NC2CCCCC2)N(C(=O)c2snnc2C)c2ccc(C)c(Cl)c2)c1` (centres undefined), the Activity in the test on Thanatephorus cucumeris is 24%; with Phytophthora infestans, 35%; in the test on Colletotrichum lagenaria, 14%; in the test with Fusarium oxysporum it was 18%; in the test on Mycosphaerella arachidis, 17%; in the test on Cercospora beticola it was 27%. Further, the Activity in test [1] worked out at 35%; in the test with Rhizoctonia solani, 63%; in the test with Pyricularia grisea, 10%; in the test on Alternaria solani it was 37%. The same compound came in with an inhibition at 100 µg/mL in the test with Tobacco mosaic virus [2] of 11%. Besides, testing at 500 µg/mL in the test with Tobacco mosaic virus [3] gave an inhibition of 19%.
For the compound `Cc1ccc(C(C(=O)NC2CCCCC2)N(C(=O)c2snnc2C)c2ccc(C)c(Cl)c2)cc1` (centres undefined), the Activity with Thanatephorus cucumeris amounted to 24%; in the test on Phytophthora infestans, 26%; with Colletotrichum lagenaria, 18%; in the test on Fusarium oxysporum, 18%; in the test on Mycosphaerella arachidis, 35%; in the test on Cercospora beticola it was 27%. The Activity turned out to be 26% in test [1], 69% with Rhizoctonia solani, 50% in the test on Pyricularia grisea and 42% in the test on Alternaria solani. 100 µg/mL produced 25% inhibition in the test on Tobacco mosaic virus [2]. In the test with Tobacco mosaic virus [3], at 500 µg/mL the inhibition was 40%.
Take `Cc1ccc(N(C(=O)c2snnc2C)C(C(=O)NC2CCCCC2)c2cccc(O)c2)cc1Cl` (centres undefined): the Activity in the test on Thanatephorus cucumeris came to 22%; in the test on Phytophthora infestans, 24%; in the test with Colletotrichum lagenaria, 44%; in the test on Fusarium oxysporum, 34%; in the test with Mycosphaerella arachidis it was 47%; in the test with Cercospora beticola, 44%. In addition, the Activity in [1] amounted to 48%; in the test with Rhizoctonia solani it was 43%; in the test with Pyricularia grisea, 29%; in the test on Alternaria solani, 56%. In the test with Tobacco mosaic virus [2], this compound had an inhibition at 100 µg/mL of 24%. In the test on Tobacco mosaic virus [3], this compound came in with an inhibition at 500 µg/mL of 35%.
In the case of `Cc1ccc(N(C(=O)c2snnc2C)C(C(=O)NC2CCCCC2)c2ccc(O)cc2)cc1Cl` (centres undefined), the Activity was found to be 37% in the test with Thanatephorus cucumeris; 32% in the test on Phytophthora infestans; 8% with Colletotrichum lagenaria; 38% with Fusarium oxysporum; 53% in the test with Mycosphaerella arachidis; 33% with Cercospora beticola. For the same compound, the Activity in test [1] was found to be 31%; in the test with Rhizoctonia solani it was 46%; with Pyricularia grisea, 41%; in the test with Alternaria solani it was 50%. In addition, the inhibition at 100 µg/mL in the test on Tobacco mosaic virus [2] came to 14%. In the test with Tobacco mosaic virus [3], this compound came in with an inhibition at 500 µg/mL of 17%.
With `Cc1ccc(N(C(=O)c2snnc2C)C(C(=O)NC2CCCCC2)c2ccccc2)cc1Cl` (centres undefined), the Activity with Thanatephorus cucumeris is listed as 17%; with Phytophthora infestans, 32%; in the test with Colletotrichum lagenaria, 9%; in the test on Fusarium oxysporum, 25%; with Mycosphaerella arachidis, 61%; with Cercospora beticola it was 36%. For the same compound, the Activity in [1] came out at 22%; with Rhizoctonia solani, 63%; in the test with Pyricularia grisea, 40%; in the test with Alternaria solani it was 32%. Further, in the test with Tobacco mosaic virus [2], the inhibition at 100 µg/mL is 19%. The same compound displayed an inhibition at 500 µg/mL with Tobacco mosaic virus [3] of 24%.
As for `Cc1ccc(N(C(=O)c2snnc2C)C(C(=O)NC2CCCCC2)c2ccccc2Cl)cc1Cl` (centres undefined), the Activity with Thanatephorus cucumeris stood at 12%; in the test with Phytophthora infestans, 26%; in the test with Colletotrichum lagenaria, 5%; with Fusarium oxysporum, 0%; in the test on Mycosphaerella arachidis, 48%; with Cercospora beticola, 27%. Besides, the Activity was 13% in test [1], 67% with Rhizoctonia solani, 40% in the test with Pyricularia grisea and 26% with Alternaria solani. The compound further returned an inhibition at 100 µg/mL in the test on Tobacco mosaic virus [2] of 19%. In the test with Tobacco mosaic virus [3], this compound came in with an inhibition at 500 µg/mL of 20%.
Consider `Cc1ccc(N(C(=O)c2snnc2C)C(C(=O)NC2CCCCC2)c2cccc(Cl)c2)cc1Cl` (centres undefined), for which the Activity in the test with Thanatephorus cucumeris is 12%; in the test on Phytophthora infestans, 21%; in the test with Colletotrichum lagenaria, 9%; in the test on Fusarium oxysporum it was 11%; in the test on Mycosphaerella arachidis, 39%; in the test on Cercospora beticola, 18%. Also, the Activity was determined as 26% in test [1], 65% in the test with Rhizoctonia solani, 20% in the test with Pyricularia grisea and 21% in the test on Alternaria solani. Also, 100 µg/mL produced 21% inhibition with Tobacco mosaic virus [2]. Further, in the test on Tobacco mosaic virus [3], the inhibition at 500 µg/mL worked out at 29%.
For `NC(=O)c1ncn([C@@H]2O[C@H](CO)[C@@H](O)[C@H]2O)n1` [RIBAVIRIN], the Activity with Tobacco mosaic virus [4] came out at 14%; in the test on Tobacco mosaic virus [5], 71%; with Nicotiana tabacum [6], 40%; in the test on Tobacco mosaic virus [7] it was 57%; in the test on Tobacco mosaic virus [8], 44%; in the test on Tobacco mosaic virus [9], 40%. The Activity is given as 10% with Nicotiana tabacum [10] and 46% in the test with Tobacco mosaic virus [11]. In the test on Tobacco mosaic virus [2], this compound had an inhibition at 100 µg/mL of 28%. For the same compound, in the test on Tobacco mosaic virus [3], the inhibition at 500 µg/mL was found to be 38%.
As to `Cc1ccc(NC(=O)c2snnc2C)cc1Cl` [TIADINIL], the Activity with Tobacco mosaic virus [4] turned out to be 12%; in the test with Tobacco mosaic virus [5], 70%; in the test on Nicotiana tabacum [6], 47%; in the test on Tobacco mosaic virus [7] it was 70%; with Tobacco mosaic virus [8], 48%; with Tobacco mosaic virus [9], 35%. Besides, the Activity worked out at 49% in the test on Nicotiana tabacum [10] and 44% with Tobacco mosaic virus [11]. The compound further had an inhibition at 100 µg/mL with Tobacco mosaic virus [2] of 37%. Besides, in the test on Tobacco mosaic virus [3], the inhibition at 500 µg/mL stood at 51%.
